This passage reports assay interference results from article PMC12337661, “PIEZO1 mechanical insensitivity in generalized lymphatic dysplasia with the potential for pharmacological rescue” (iScience, 2025).

Each structure is given as a SMILES string.

For the experiment, the target named is T1, WT mPIEZO1 (Mus musculus, UniProt E2JF22).
T1 construct: expressed in transfected cells
The experiment is described as follows: Long substance exposure and hypo-osmolality protocol Ca2+ assay. The format is cell-based. The conditions noted are these: 10 µM. As to the method: For intracellular Ca^2+ assays, cells were plated at 80–90% confluence in 96-well plates 24 h prior to recordings (6–8 × 10^4 cells per well). […] Cells were washed with SBS and incubated at room temperature for 20 min prior to recordings. Equal volumes of 2x concentrated compounds were injected to test for acute channel activation. Pre-incubation with compounds occurred during the 20 min prior to recordings. To expose cell membranes to hypo-osmolality, an equal volume of hypotonic SBS (containing only 35 mM NaCl) was injected onto the cells. Measurements were made on a fluorescence plate reader (Flexstation III, Molecular Devices) at room temperature (21 ± 2°C). Fura-2 was excited at 340 nm and 380 nm and emitted light collected at 510 nm, with measurements shown as the change in fluorescence (F) ratio (ΔF340/380).
SI Figure S5: Hypo-osm ol al it y test in the Ca2+ assay, referred to in the main paper
(a) Typical 96-well plate mean ± s.e.m. data for changes in intracellular Ca2+ evoked by hypotonic (35 mM NaCl) or normotonic (135 mM NaCl) medium for WT- or Empty vector-transfected cells in increasing concentrations of Yoda1 as indicated and colour -coded on t he right (representative of n = 3-6 independent experiments). […]

T1 sequence (E2JF22 whole entry): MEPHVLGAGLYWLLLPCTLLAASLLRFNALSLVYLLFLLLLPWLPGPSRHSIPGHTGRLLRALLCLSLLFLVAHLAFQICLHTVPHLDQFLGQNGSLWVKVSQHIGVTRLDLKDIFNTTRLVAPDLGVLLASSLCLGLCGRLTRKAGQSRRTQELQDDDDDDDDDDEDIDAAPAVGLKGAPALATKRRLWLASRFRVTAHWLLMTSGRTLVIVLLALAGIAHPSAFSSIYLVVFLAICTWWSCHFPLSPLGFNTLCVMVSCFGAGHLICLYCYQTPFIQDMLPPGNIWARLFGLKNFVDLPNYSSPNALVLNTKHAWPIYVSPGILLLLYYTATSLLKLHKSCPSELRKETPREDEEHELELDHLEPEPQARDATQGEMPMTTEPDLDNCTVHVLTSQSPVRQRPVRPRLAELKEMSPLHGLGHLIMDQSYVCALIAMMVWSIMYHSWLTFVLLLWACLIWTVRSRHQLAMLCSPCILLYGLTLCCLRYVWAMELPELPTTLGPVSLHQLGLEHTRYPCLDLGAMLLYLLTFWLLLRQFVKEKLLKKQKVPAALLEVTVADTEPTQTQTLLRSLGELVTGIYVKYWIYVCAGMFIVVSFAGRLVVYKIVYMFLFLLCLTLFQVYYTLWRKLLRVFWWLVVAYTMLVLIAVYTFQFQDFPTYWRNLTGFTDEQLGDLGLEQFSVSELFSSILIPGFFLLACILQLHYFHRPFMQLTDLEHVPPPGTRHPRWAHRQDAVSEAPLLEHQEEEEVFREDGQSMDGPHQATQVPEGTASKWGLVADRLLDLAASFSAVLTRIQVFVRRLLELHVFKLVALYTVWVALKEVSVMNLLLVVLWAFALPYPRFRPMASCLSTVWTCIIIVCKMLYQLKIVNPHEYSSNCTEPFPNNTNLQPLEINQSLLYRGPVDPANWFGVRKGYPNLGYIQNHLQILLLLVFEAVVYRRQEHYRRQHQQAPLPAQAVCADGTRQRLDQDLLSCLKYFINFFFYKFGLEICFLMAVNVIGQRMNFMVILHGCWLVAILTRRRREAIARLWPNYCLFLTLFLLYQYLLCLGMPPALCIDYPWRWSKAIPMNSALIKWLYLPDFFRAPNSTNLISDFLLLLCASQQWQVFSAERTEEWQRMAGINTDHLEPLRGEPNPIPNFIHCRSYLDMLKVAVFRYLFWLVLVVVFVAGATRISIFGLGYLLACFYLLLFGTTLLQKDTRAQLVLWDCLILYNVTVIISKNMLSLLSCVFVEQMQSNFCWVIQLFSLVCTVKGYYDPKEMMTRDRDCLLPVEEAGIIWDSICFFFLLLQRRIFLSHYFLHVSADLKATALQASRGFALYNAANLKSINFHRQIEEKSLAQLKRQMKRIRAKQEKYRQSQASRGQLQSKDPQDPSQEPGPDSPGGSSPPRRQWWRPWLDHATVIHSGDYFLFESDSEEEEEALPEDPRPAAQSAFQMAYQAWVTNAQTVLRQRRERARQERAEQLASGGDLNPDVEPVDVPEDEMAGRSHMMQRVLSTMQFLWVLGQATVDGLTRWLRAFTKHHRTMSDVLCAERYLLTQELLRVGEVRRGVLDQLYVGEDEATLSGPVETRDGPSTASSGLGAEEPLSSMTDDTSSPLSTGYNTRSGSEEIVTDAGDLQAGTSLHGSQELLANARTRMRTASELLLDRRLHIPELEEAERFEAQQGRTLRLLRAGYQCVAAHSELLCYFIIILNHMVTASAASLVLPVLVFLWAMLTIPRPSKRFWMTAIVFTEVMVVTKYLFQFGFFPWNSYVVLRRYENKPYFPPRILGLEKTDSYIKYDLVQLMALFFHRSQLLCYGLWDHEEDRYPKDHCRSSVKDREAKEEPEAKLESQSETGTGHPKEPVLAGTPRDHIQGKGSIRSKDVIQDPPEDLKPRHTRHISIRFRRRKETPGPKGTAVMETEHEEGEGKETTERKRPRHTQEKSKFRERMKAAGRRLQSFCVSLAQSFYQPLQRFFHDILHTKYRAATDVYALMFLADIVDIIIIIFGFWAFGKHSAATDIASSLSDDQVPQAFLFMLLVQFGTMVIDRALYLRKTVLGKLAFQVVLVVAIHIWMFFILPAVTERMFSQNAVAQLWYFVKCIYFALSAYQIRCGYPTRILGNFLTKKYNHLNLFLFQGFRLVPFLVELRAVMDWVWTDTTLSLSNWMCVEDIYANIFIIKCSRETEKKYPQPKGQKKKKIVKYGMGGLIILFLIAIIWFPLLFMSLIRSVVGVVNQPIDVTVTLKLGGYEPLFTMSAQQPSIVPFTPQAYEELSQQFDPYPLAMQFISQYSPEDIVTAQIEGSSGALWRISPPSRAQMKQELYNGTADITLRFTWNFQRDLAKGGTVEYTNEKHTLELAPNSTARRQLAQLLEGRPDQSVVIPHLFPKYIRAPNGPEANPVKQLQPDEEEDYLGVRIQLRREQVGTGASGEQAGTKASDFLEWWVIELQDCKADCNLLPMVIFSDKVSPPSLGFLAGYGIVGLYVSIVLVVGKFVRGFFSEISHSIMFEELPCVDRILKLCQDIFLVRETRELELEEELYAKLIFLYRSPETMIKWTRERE

As for `Nc1ccc(-c2nnc(SCc3c(Cl)cccc3Cl)s2)cc1` [KC146, 4-(5-((2,6-dichlorobenzyl)thio)-1,3,4-thiadiazol-2-yl)aniline], the assay interference result is “caused a fluorescence artefact”.
